Results published in patent US20230069804A1, “METHODS AND COMPOSITIONS FOR MODULATING SPLICING” (SkyHawk Therapeutics, Inc., priority 2019, published 2023).
Read-outs that look alike come from different tables or passages of the source.

How the values were obtained:
[1] = tested on: SMN protein; assay: SMN protein assay (MSD) in SMA patient fibroblasts GM03813; type: cell-based; details: SMA patient fibroblasts GM03813, 48 hours
Procedure: Compounds were tested on spinal muscular atrophy (SMA) patient fibroblasts (GM03813, Coriell) at doses ranging from 2.5 μM to 0.6 nM. 7000 cells/well were seeded in 96-well plates. Compounds were incubated for 48 hours and the cells were lysed with 100 μL of lysis buffer. 20 μL of lysate was used for SMN protein measurement by Mesoscale Discovery (MSD) assay developed by PharmOptima (Michigan). A standard curve prepared with SMN protein ranging from 1 μg/ml to 19.5 pg/ml was used in each MSD plate to calculate the absolute SMN protein amount in each sample.

[2] = tested on: MDR1; assay: MDCK-MDR1 permeability assay (BBB penetration potential); type: in vitro ADME; details: dog; for Papp A→B at 120 min, 5 μM / Papp B→A at 120 min, 5 μM: MDCK-MDR1, pH 7.4
Procedure: (§1) Each determination is performed in duplicate. […] Analytical conditions are outlined below.
(§2) Papp=(dCr/dt)×Vr/(A×CA) (1)

[3] = tested on: MDR1-MDCK cell monolayers; assay: as above; type: in vitro ADME; details: 5 μM, 120 minutes; for MDCK-MDR1: % Recov A-B / MDCK-MDR1: % Recov B-A: pH 7.4
Procedure: as §1, §2

[4] = tested on: SMN2; assay: Quantitative splicing assay (SMN) in SMA patient fibroblasts GM03813; type: cell-based; details: Homo sapiens, Fibroblast, SMA patient fibroblasts GM03813, 24 h; for IC50: read-out: SMN2 Potency - Splicing: Splicing D7 IC50 (average); for EC50: read-out: SMN2 Potency - Splicing: Splicing FL EC50 (average)
Procedure: Spinal muscular atrophy (SMA) patient fibroblasts (GM03813, Coriell) are plated in 96-well plates at 50,000 cells/well. Immediately after plating, cells are dosed with compounds for 24 h at concentrations ranging from 2.5 μM to 0.6 nM (0.1% DMSO). Treated cells are lysed and cDNA synthesized using the Fast Advanced Cells-to-Ct kit (Thermofisher A35378) according to the manufacturer's instructions. 2 μL of each cDNA are used in qPCR reactions. The qPCR reactions are prepared in 384-well plates in 10 μL volume, using TaqMan™ Fast Advanced Master Mix (ThermoFisher; 4444965) with primers and probes shown in the table below. Reactions are run in a Quant Studio 6 qPCR instrument with default settings.
It is to be understood that the absolute stereochemistry for compounds of Table 3 is not determined.

[5] = Fibroblast, 48 h, read-out: SMN2 Potency - Protein: Protein FL EC50 (average)
[6] = MDCK-MDR1, pH 7.4, Papp (B-to-A)/Papp (A-to-B), read-out: MDCK-MDR1: Efflux

Structure (SMILES) | EC50 [1, 5] [nM] | efflux ratio at 120 min, 5 μM [2, 6] | Papp A→B at 120 min, 5 μM ([2]; 5 μM, 120 minutes) [×10⁻⁶ cm/s] | Papp B→A at 120 min, 5 μM ([2]; 5 μM, 120 minutes) [×10⁻⁶ cm/s] | MDCK-MDR1: % Recov A-B [3] [%] | MDCK-MDR1: % Recov B-A [3] [%] | IC50 [4] [nM] | EC50 [4] [nM] | EC50 ([1]; Fibroblast, 48 h, separated enantiomers, told apart by chiral retention time, read-out: SMN EC50) [nM] | EC50 ([1]; separated enantiomers, told apart by chiral retention time, read-out: SMN EC50) [nM] | efflux ratio at 120 min, 5 μM ([2]; MDCK-MDR1, pH 7.4, Papp (B-to-A)/Papp (A-to-B), 5 μM, 120 minutes, separated enantiomers, told apart by chiral retention time, read-out: MDCK MDRP1 Efflux Ratio) | MDCK MDRP1 Efflux Ratio ([3]; Papp (B-to-A)/Papp (A-to-B), separated enantiomers, told apart by chiral retention time)
CN(c1nnc(-c2ccc(-c3cnn(C)c3)cc2O)s1)[C@@H]1C[C@H]2CCC[C@H](N2)[C@@H]1F [Compound E-1A, 2-(5-(((1S,2S,3R,5R)-2-fluoro-9-azabicyclo[3.3.1]nonan-3-yl)(methyl)amino)-1,3,4-thiadiazol-2-yl)-5-(1-methyl-1H-pyrazol-4-yl)phenol] | 16 to 50 | 6 | 5.28 | 33.1 | 57 | 71 | 51 to 100 | 101 to 500 |  |  |  | 
CN(c1nnc(-c2ccc(-c3cnn(C)c3)cc2O)s1)[C@H]1C[C@@H]2CC[C@@H](N2)[C@H]1F [Compound E-3A, 2-(5-(((1R,2R,3S,5S)-2-fluoro-8-azabicyclo[3.2.1]octan-3-yl)(methyl)amino)-1,3,4-thiadiazol-2-yl)-5-(1-methyl-1H-pyrazol-4-yl)phenol] | 16 to 50 | 3 | 10.5 | 35.2 | 77 | 85 | 101 to 500 | 101 to 500 |  |  |  | 
CN(c1nnc(-c2ccc(-c3cn[nH]c3)cc2O)s1)[C@H]1C[C@@H]2CC[C@H]([C@H]1F)N2C (single isomer, unassigned) [Compound E-23A] | 101 to 500 | 9 | 4.65 | 41.2 | 78 | 90 | 501 to 10000 | 501 to 10000 |  |  |  | 
CN(c1nnc(-c2ccc(-c3cnn(C)c3)cc2O)s1)[C@@H]1C[C@H]2CC[C@H](N2)[C@@H]1F [Compound E-3B, 2-(5-(((1S,2S,3R,5R)-2-fluoro-8-azabicyclo[3.2.1]octan-3-yl)(methyl)amino)-1,3,4-thiadiazol-2-yl)-5-(1-methyl-1H-pyrazol-4-yl)phenol] | 0.01 to 15 | 5 | 11.2 | 51.1 | 80 | 89 | 0.01 to 15 | 16 to 50 |  |  |  | 
COc1cc(-c2ccc(-c3nnc(N(C4CC4)[C@@H]4C[C@H]5CC[C@H](N5)[C@@H]4F)s3)c(O)c2)cc(F)n1 [Compound E-2A, 2-(5-(cyclopropyl((1S,2S,3R,5R)-2-fluoro-8-azabicyclo[3.2.1]octan-3-yl)amino)-1,3,4-thiadiazol-2-yl)-5-(2-fluoro-6-methoxypyridin-4-yl)phenol] | 0.01 to 15 | 6 | 2.07 | 12 | 19 | 45 | 0.01 to 15 | 16 to 50 |  |  |  | 
CN(c1nnc(-c2cc(F)c(-c3cnn(C)c3)cc2O)s1)[C@H]1C[C@@H]2CC[C@@H](N2)[C@H]1F (single isomer, unassigned) [Compound E-9A] | 51 to 100 | 6 | 5.87 | 36.3 | 51 | 68 | 51 to 100 | 101 to 500 |  |  |  | 
CN(c1nnc(-c2ccc(-c3cn[nH]c3)cc2O)s1)[C@@H]1C[C@H]2CC[C@H](N2)[C@@H]1F (single isomer, unassigned) [Compound E-7B] | 0.01 to 15 | 12 | 4.76 | 56 | 79 | 91 | 0.01 to 15 | 0.01 to 15 |  |  |  | 
CN(c1nnc(-c2ccc(-c3ccn(CF)c(=O)c3)cc2O)s1)[C@H]1C[C@@H]2CC[C@@H](N2)[C@H]1F (single isomer, unassigned) [Compound E-15B] | 16 to 50 | 66 | 0.98 | 64.8 | 88 | 97 | 51 to 100 | 101 to 500 |  |  |  | 
CN(c1nnc(-c2ccc(-c3cnn(C)c3)cc2O)s1)[C@H]1C[C@@H]2CCC[C@@H](N2)[C@H]1F [Compound E-1B, 2-(5-(((1R,2R,3S,5S)-2-fluoro-9-azabicyclo[3.3.1]nonan-3-yl)(methyl)amino)-1,3,4-thiadiazol-2-yl)-5-(1-methyl-1H-pyrazol-4-yl)phenol] | 0.01 to 15 | 4 | 5.53 | 20.4 | 53 | 68 | 0.01 to 15 | 16 to 50 |  |  |  | 
CN(c1nnc(-c2ccc(-c3cnn(CF)c3)cc2O)s1)[C@@H]1C[C@H]2CC[C@H](N2)[C@@H]1F (single isomer, unassigned) [Compound E-10B] | 0.01 to 15 | 6 | 7.85 | 48.9 | 72 | 73 | 16 to 50 | 16 to 50 |  |  |  | 
COc1cc(-c2ccc(-c3nnc(N(C)[C@@H]4C[C@H]5CC[C@H](N5)[C@@H]4F)s3)c(O)c2)ncn1 (single isomer, unassigned) [Compound E-5A] | 16 to 50 | 2 | 7.8 | 19.1 | 41 | 61 | 51 to 100 | 51 to 100 |  |  |  | 
CN(c1nnc(-c2cc(F)c(-c3cnn(C)c3)cc2O)s1)[C@@H]1C[C@H]2CC[C@H](N2)[C@@H]1F (single isomer, unassigned) [Compound E-9B] | 16 to 50 | 5 | 5.38 | 26 | 48 | 67 | 0.01 to 15 | 16 to 50 |  |  |  | 
COc1cc(-c2ccc(-c3nnc(N(C4CC4)[C@H]4C[C@@H]5CC[C@@H](N5)[C@H]4F)s3)c(O)c2)cc(F)n1 [Compound E-2B, 2-(5-(cyclopropyl((1R,2R,3S,5S)-2-fluoro-8-azabicyclo[3.2.1]octan-3-yl)amino)-1,3,4-thiadiazol-2-yl)-5-(2-fluoro-6-methoxypyridin-4-yl)phenol] | 0.01 to 15 | 5 | 1.87 | 9.89 | 16 | 44 | 16 to 50 | 51 to 100 |  |  |  | 
CN(c1nnc(-c2ccc(-c3ccn(C)c(=O)c3)cc2O)s1)[C@@H]1C[C@H]2CC[C@H](N2)[C@@H]1F (racemic) [4A/4B, 4-[4-(5-{[(1S,2S,3R)-2-fluoro-8-azabicyclo[3.2.1]octan-3-yl](methyl)amino}-1,3,4-thiadiazol-2-yl)-3-hydroxyphenyl]-1-methyl-1,2-dihydropyridin-2-one and 4-[4-(5-{[(2R,3S,5S)-2-fluoro-8-azabicyclo[3.2.1]octan-3-yl](methyl)amino}-1,3,4-thiadiazol-2-yl)-3-hydroxyphenyl]-1-methyl-1,2-dihydropyridin-2-one] |  |  |  |  |  |  |  |  | 51 to 100 | 101 to 500 | 54 | 40
CN(c1nnc(-c2cc(F)c(-c3cn[nH]c3)cc2O)s1)[C@H]1C[C@@H]2CC[C@@H](N2)[C@H]1F (single isomer, unassigned) [Compound E-6B] | 0.01 to 15 | 12 | 3.16 | 39.3 | 62 | 76 | 0.01 to 15 | 16 to 50 |  |  |  | 
